# Laboratory results published in paper PMC6946680, “Modulation of brain cation-Cl^− cotransport via the SPAK kinase inhibitor ZT-1a” (Nature Communications, 2020).
# Several values for one entry are separate records, joined by “and”; a condition that tells them apart may be missing. Identical values can stand only once. Like-named read-outs stand apart in the source and are kept apart here.
# Tests used:
# [1] = system: T1, SPAK–WNK1 interaction; assay: SPAK antibody pull-down / co-immunoprecipitation of WNK1 from HEK-293 cell lysates; assay type: binding, human; details: Fig S6
# T1 construct: endogenous in cells; host or cells: HEK-293
# Experimental: Supplemental Fig. 6 Evidence that SPAK associates with WNK1, and interaction is disrupted by ZT-1a and its analogs. Non-transfected HEK293 cell lysates were incubated with the RFQV peptide […]
# ZT-1a for 30 min on ice and subjected to SPAK antibody immunoprecipitation. Immunoprecipitates were subjected to immunoblot probed with antibody to total WNK1 and antibody to total SPAK. Left panels: representative immunoblots. Right panels, summarized data quantitated by densitometry (n=3, means ± SEM; **,
# [2] = system: SPAK pSer373; assay: Immunoblot of SPAK/OSR1 p-Ser373/Ser325 in HEK-293 cells; assay type: cell-based, human
# Experimental: (§1) Band intensities were quantitated with ImageJ software. ***p < 0.001; **p < 0.01; *p < 0.05; ns, nonsignificant [by one-way ANOVA with post hoc testing (n = 6, error bars represent the mean ± SEM)].
# (§2) Thirty-six hours post transfection, cells were stimulated with either control isotonic or hypotonic medium for a period of 30 min. […] Protein concentrations were determined using the Bradford method. Cells were treated with the indicated concentrations of the SPAK/OSR1 inhibitors.
# [3] = system: NKCC1 pThr203/207/212; assay: Immunoblot of NKCC1 p-Thr203/Thr207/Thr212 in HEK-293 cells; assay type: cell-based, human
# Experimental: as §1, §2
# [4] = system: KCC3 pThr991; assay: Immunoblot of KCC site 1 phosphorylation (KCC3 Thr991) in HEK-293 cells transfected with FLAG-KCC3; assay type: cell-based, human; details: for IC50: read-out: KCC3 pThr991 (μM), 50% inhibition, HEK-293, n = 3
# [5] = system: KCC3 pThr1048; assay: Immunoblot of KCC site 2 phosphorylation (KCC3 Thr1048) in HEK-293 cells transfected with FLAG-KCC3; assay type: cell-based, human
# [6] = system: SPAK pSer373; assay: Immunoblot of SPAK/OSR1 p-Ser373/Ser325 in HEK-293 cells; assay type: cell-based, human; details: read-out: SPAK pSer373 (μM), 50% inhibition, HEK-293, n = 3
# [7] = system: NKCC1 pThr203/207/212; assay: Immunoblot of NKCC1 p-Thr203/Thr207/Thr212 in HEK-293 cells; assay type: cell-based, human; details: read-out: NKCC1 pThr203 (μM), 50% inhibition, HEK-293, n = 3
# [8] = system: KCC3 pThr1048; assay: Immunoblot of KCC site 2 phosphorylation (KCC3 Thr1048) in HEK-293 cells transfected with FLAG-KCC3; assay type: cell-based, human; details: read-out: KCC3 pThr1048 (μM), 50% inhibition, HEK-293, n = 3
# [9] = system: mouse model of ischemic stroke (tMCAO); assay: Infarct volume and hemispheric swelling (TTC) 24 h after tMCAO; assay type: in vivo; details: Fig 7b, individual mice
# [10] = Hypotonic low Cl, compound concentration 1 (unit not given)
# [11] = Hypotonic low Cl, compound concentration 3 (unit not given)
# [12] = Hypotonic low Cl, compound concentration 10 (unit not given)
# [13] = Isotonic control, compound concentration 1 (unit not given)
# [14] = Isotonic control, compound concentration 3 (unit not given)
# [15] = Isotonic control, compound concentration 10 (unit not given)
SMILES,"pSer373 / SPAK [2, 10]","pSer373 / SPAK [2, 11]","pSer373 / SPAK [2, 12]","pSer373 / SPAK [2, 13]","pSer373 / SPAK [2, 14]","pSer373 / SPAK [2, 15]","pThrNKCC1 / NKCC1 [3, 10]","pThrNKCC1 / NKCC1 [3, 11]","pThrNKCC1 / NKCC1 [3, 13]","pThrNKCC1 / NKCC1 [3, 14]","pThrNKCC1 / NKCC1 [3, 15]","Site-1 phospho / KCC [4, 10]","Site-1 phospho / KCC [4, 11]","Site-1 phospho / KCC [4, 12]","Site-1 phospho / KCC [4, 13]","Site-1 phospho / KCC [4, 14]","Site-1 phospho / KCC [4, 15]","Site-2 phospho / KCC [5, 10]","Site-2 phospho / KCC [5, 11]","Site-2 phospho / KCC [5, 12]",also measured
Cc1cc(C(C#N)c2ccc(Cl)cc2)c(Cl)cc1NC(=O)c1cc(I)cc(I)c1O (stereo not shown) [Closanel],,,,,,,,,,,,,,,,,,,,,WNK1 co-immunoprecipitated with SPAK (band quantification) ([1]; 10 uM): 0.416 and 0.33 and 0.3682 and 0.389; WNK1 co-immunoprecipitated with SPAK (band quantification) ([1]; 30 uM): 0.353 and 0.208 and 0.256 and 0.231; WNK1 co-immunoprecipitated with SPAK (band quantification) ([1]; 100 uM): 0.179 and 0.139 and 0.1611 and 0.153; WNK1 co-immunoprecipitated with SPAK (band quantification) ([1]; 1000 uM): 0.036 and 0.031 and 0.0232 and 0.027
Cc1cc(C(C#N)c2ccc(Cl)cc2)c(Cl)cc1NC(=O)c1cccc(F)c1O (stereo not shown) [ZT-1h],0.297 and 0.248 and 0.275 and 0.253,0.179 and 0.135 and 0.168 and 0.158,0.066 and 0.034 and 0.051 and 0.049,0.112 and 0.124 and 0.132 and 0.106,0.08 and 0.07 and 0.064 and 0.084,0.034 and 0.025 and 0.043 and 0.026,0.317 and 0.294 and 0.283 and 0.306,0.131 and 0.156 and 0.1342 and 0.125,0.112 and 0.132 and 0.122 and 0.109,0.022 and 0.043 and 0.035 and 0.028,0.008 and 0.006 and 0.004 and 0.005,0.488 and 0.427 and 0.359 and 0.502,0.412 and 0.376 and 0.392 and 0.431,0.165 and 0.187 and 0.122 and 0.203,0.455 and 0.431 and 0.5108 and 0.482,0.419 and 0.386 and 0.354 and 0.437,0.215 and 0.201 and 0.251 and 0.276,0.281 and 0.258 and 0.279 and 0.266,0.143 and 0.176 and 0.159 and 0.132,0.021 and 0.042 and 0.035 and 0.025,"Site-2 phospho / KCC [5, 13]: 0.271 and 0.243 and 0.219 and 0.263; Site-2 phospho / KCC [5, 14]: 0.186 and 0.176 and 0.131 and 0.159; Site-2 phospho / KCC [5, 15]: 0.052 and 0.041 and 0.03 and 0.048"
Cc1cc(C(C#N)c2ccc(Cl)cc2)c(Cl)cc1NC(=O)c1ccccc1[N+](=O)[O-] (stereo not shown) [Compound 1e],,,,,,,,,,,,,,,,,,,,,IC50 ([4]; Iso (isotonic)): > 10 µM; IC50 ([4]; hypo (hypotonic)): > 10 µM; IC50 ([6]; Iso (isotonic)): > 10 µM; IC50 ([6]; hypo (hypotonic)): > 10 µM; IC50 ([7]; Iso (isotonic)): > 10 µM; IC50 ([7]; hypo (hypotonic)): > 10 µM; IC50 ([8]; Iso (isotonic)): > 10 µM; IC50 ([8]; hypo (hypotonic)): > 10 µM
COc1ccc(Cl)cc1C(=O)Nc1cc(Cl)c(C(C#N)c2ccc(Cl)cc2)cc1C (stereo not shown) [Compound 1j],,,,,,,,,,,,,,,,,,,,,IC50 ([4]; Iso (isotonic)): > 10 µM; IC50 ([4]; hypo (hypotonic)): > 10 µM; IC50 ([6]; Iso (isotonic)): > 10 µM; IC50 ([6]; hypo (hypotonic)): > 10 µM; IC50 ([7]; Iso (isotonic)): > 10 µM; IC50 ([7]; hypo (hypotonic)): > 10 µM; IC50 ([8]; Iso (isotonic)): > 10 µM; IC50 ([8]; hypo (hypotonic)): > 10 µM
Cc1cc(C(C#N)c2ccc(Cl)cc2)c(Cl)cc1NC(=O)c1cc(Cl)ccc1O (stereo not shown) [ZT],,,,,,,,,,,,,,,,,,,,,Hemisphere swelling (%) ([9]; group ZT 2.5): 11.06% and 15.88% and 13.11% and 15.27% and 16.5% and 21.75%; Infarct volume (mm3) ([9]; group ZT 2.5): 29.36 mm3 and 90.65 mm3 and 33.9 mm3 and 61.9 mm3 and 46.64 mm3 and 99.8 mm3; Hemisphere swelling (%) ([9]; group ZT 5.0): 16.2% and 16.76% and 19.99% and 9.25% and 8.47% and 7.57% and 9.24% and 4.63% and 10.39% and 8.48% and 13.8% and 7.91%; Infarct volume (mm3) ([9]; group ZT 5.0): 48.74 mm3 and 86.87 mm3 and 49.93 mm3 and 31.43 mm3 and 42.1 mm3 and 27.75 mm3 and 25.29 mm3 and 24.11 mm3 and 27.25 mm3 and 37.2 mm3 and 90 mm3 and 33.39 mm3
Cc1cc(C(C#N)c2ccc(Cl)cc2)c(Cl)cc1NC(=O)c1ccccc1N (stereo not shown) [ZT-1d],0.19 and 0.21 and 0.18 and 0.207,0.131 and 0.12 and 0.103 and 0.116,0.04 and 0.025 and 0.035 and 0.031,0.11 and 0.119 and 0.109 and 0.101,0.072 and 0.065 and 0.051 and 0.063,0.022 and 0.031 and 0.038 and 0.028,0.46 and 0.429 and 0.413 and 0.49,0.27 and 0.21 and 0.203 and 0.251,0.313 and 0.307 and 0.286 and 0.297,0.143 and 0.119 and 0.09 and 0.126,0.055 and 0.031 and 0.042 and 0.047,0.516 and 0.487 and 0.55 and 0.508,0.509 and 0.49 and 0.511 and 0.521,0.276 and 0.218 and 0.234 and 0.258,0.49 and 0.471 and 0.48 and 0.466,0.355 and 0.36 and 0.38 and 0.371,0.218 and 0.232 and 0.255 and 0.241,0.37 and 0.41 and 0.35 and 0.482,0.29 and 0.25 and 0.23 and 0.287,0.105 and 0.124 and 0.08 and 0.117,"pThrNKCC1 / NKCC1 [3, 12]: 0.11 and 0.077 and 0.102 and 0.085; Site-2 phospho / KCC [5, 13]: 0.412 and 0.477 and 0.43 and 0.521; Site-2 phospho / KCC [5, 14]: 0.209 and 0.165 and 0.191 and 0.177; Site-2 phospho / KCC [5, 15]: 0.108 and 0.08 and 0.114 and 0.094"
Cc1cc(C(C#N)c2ccc(Cl)cc2)c(Cl)cc1NC(=O)c1ccccc1O (stereo not shown) [ZT-1b],0.301 and 0.286 and 0.291 and 0.316,0.183 and 0.156 and 0.163 and 0.175,0.078 and 0.061 and 0.055 and 0.065,0.103 and 0.127 and 0.137 and 0.117,0.087 and 0.09 and 0.06 and 0.076,0.055 and 0.039 and 0.041 and 0.047,0.309 and 0.287 and 0.264 and 0.27,0.122 and 0.114 and 0.1313 and 0.117,0.127 and 0.118 and 0.126 and 0.123,0.034 and 0.041 and 0.048 and 0.043,0.009 and 0.007 and 0.005 and 0.006,0.297 and 0.278 and 0.267 and 0.28,0.255 and 0.247 and 0.261 and 0.237,0.022 and 0.031 and 0.029 and 0.035,0.198 and 0.201 and 0.187 and 0.21,0.167 and 0.17 and 0.155 and 0.16,0.095 and 0.121 and 0.114 and 0.104,0.289 and 0.263 and 0.271 and 0.25,0.156 and 0.183 and 0.172 and 0.162,0.033 and 0.041 and 0.022 and 0.031,"pThrNKCC1 / NKCC1 [3, 12]: 0.011 and 0.0109 and 0.016 and 0.013; Site-2 phospho / KCC [5, 13]: 0.184 and 0.212 and 0.196 and 0.205; Site-2 phospho / KCC [5, 14]: 0.112 and 0.132 and 0.126 and 0.115; Site-2 phospho / KCC [5, 15]: 0.042 and 0.039 and 0.061 and 0.053"
Cc1cc(C(C#N)c2ccc(Cl)cc2)c(Cl)cc1NC(=O)c1cccc(O)c1O (stereo not shown) [Compound 1i],,,,,,,,,,,,,,,,,,,,,IC50 ([4]; Iso (isotonic)): > 10 µM; IC50 ([4]; hypo (hypotonic)): > 10 µM; IC50 ([6]; Iso (isotonic)): > 10 µM; IC50 ([6]; hypo (hypotonic)): > 10 µM; IC50 ([7]; Iso (isotonic)): > 10 µM; IC50 ([7]; hypo (hypotonic)): > 10 µM; IC50 ([8]; Iso (isotonic)): > 10 µM; IC50 ([8]; hypo (hypotonic)): > 10 µM
